Source: US20260271987A1, “AEROSOL PRECURSOR COMPOSITION COMPRISING MONOMENTHYL ESTER” (RAI STRATEGIC HOLDINGS, INC., priority 2023, published 2026)

Assay: Thermal analysis (flash pyrolysis and thermogravimetric analysis) of neat menthyl monosuccinate
Format: physicochemical
Details: for Compounds volatilized by FP and TGA, Area %: neat menthyl monosuccinate sample, FP in helium, Teq=340° C., 40 seconds, GC/MS, TGA 30 to 340° C. at 20 degrees per minute
Description: Flash pyrolysis (FP) and thermogravimetric analysis (TGA) were conducted on a sample of menthyl monosuccinate.
For the FP, a pyroprobe Model 5200 (CDS Analytical, CDS, Oxford, PA 19363, USA) pyrolyzer was used. Heating was performed in helium in flash mode with Teq=340° C. using approximately 0.5 mg of neat monomenthyl succinate. Heating was performed for 40 seconds. GC/MS analysis was performed with separation on a DB-1701 column. For the TG, a Discovery TA 5500 (TA Instruments, New Castle, DE, USA) was used. The temperature range was 30 to 340° C. at a ramp rate of 20 degrees per minute. Neat monomenthyl succinate (2-3 mg) and silica (about 1.5 mg, containing 5% naphthalene) was used as an internal standard.

Row | major decomposition product formed from menthyl monosuccinate (FP and TGA, up to 340° C.) [%] | Structure (SMILES) | Compounds volatilized by FP and TGA, Area % [%] | portion of the menthyl monosuccinate volatilized without decomposition (FP and TGA, up to 340° C.) [%]
1 | 16.5 | CC(C)[C@@H]1CC[C@@H](C)C[C@H]1O [Menthol, (1R,2S,5R)-5-Methyl-2-(propan-2-yl)cyclohexan-1-ol] | 16.5 | 
2 |  | CC(C)[C@@H]1CC[C@@H](C)C[C@H]1OC(=O)CCC(=O)O [Menthyl monosuccinate] | 70 | 70
